Measurements: patent publication US9206188B2, “Substituted pyrrolo[2,3-b]pyridines as ITK and JAK inhibitors” (Arrien Pharmaceuticals LLC, priority 2013, dated 2015)
Like-named read-outs stand apart in the source and are kept apart here.

Experiments:
[1] = test system: JAK/STAT; test: SelectScreen cell-based pathway profiling, JAK/STAT, SIE-bla HEK 293T, IFN-gamma stimulated; settings: SIE-bla HEK 293T cells, IFN-gamma stim
[2] = test system: JAK/STAT; test: SelectScreen cell-based pathway profiling, JAK/STAT, SIE-bla HEK 293T, IL-6 stimulated; settings: SIE-bla HEK 293T cells, IL-6 stim
[3] = test system: JAK2/STAT5; test: SelectScreen cell-based pathway profiling, JAK2/STAT5, irf1-bla TF1, EPO stimulated; settings: irf1-bla TF1 cells, EPO stim
[4] = test system: IL-4/STAT6; test: SelectScreen cell-based pathway profiling, IL-4/STAT6, STAT6-bla RA1, IL-4 stimulated; settings: STAT6-bla RA1 cells, IL-4 stim, 10-point titration
[5] = target: JAK3 (Homo sapiens (Human), UniProt P52333); test: JAK3 kinase assay (radiometric filter binding, 10 μM ATP); type: biochemical
Sequence of JAK3 (P52333 whole entry): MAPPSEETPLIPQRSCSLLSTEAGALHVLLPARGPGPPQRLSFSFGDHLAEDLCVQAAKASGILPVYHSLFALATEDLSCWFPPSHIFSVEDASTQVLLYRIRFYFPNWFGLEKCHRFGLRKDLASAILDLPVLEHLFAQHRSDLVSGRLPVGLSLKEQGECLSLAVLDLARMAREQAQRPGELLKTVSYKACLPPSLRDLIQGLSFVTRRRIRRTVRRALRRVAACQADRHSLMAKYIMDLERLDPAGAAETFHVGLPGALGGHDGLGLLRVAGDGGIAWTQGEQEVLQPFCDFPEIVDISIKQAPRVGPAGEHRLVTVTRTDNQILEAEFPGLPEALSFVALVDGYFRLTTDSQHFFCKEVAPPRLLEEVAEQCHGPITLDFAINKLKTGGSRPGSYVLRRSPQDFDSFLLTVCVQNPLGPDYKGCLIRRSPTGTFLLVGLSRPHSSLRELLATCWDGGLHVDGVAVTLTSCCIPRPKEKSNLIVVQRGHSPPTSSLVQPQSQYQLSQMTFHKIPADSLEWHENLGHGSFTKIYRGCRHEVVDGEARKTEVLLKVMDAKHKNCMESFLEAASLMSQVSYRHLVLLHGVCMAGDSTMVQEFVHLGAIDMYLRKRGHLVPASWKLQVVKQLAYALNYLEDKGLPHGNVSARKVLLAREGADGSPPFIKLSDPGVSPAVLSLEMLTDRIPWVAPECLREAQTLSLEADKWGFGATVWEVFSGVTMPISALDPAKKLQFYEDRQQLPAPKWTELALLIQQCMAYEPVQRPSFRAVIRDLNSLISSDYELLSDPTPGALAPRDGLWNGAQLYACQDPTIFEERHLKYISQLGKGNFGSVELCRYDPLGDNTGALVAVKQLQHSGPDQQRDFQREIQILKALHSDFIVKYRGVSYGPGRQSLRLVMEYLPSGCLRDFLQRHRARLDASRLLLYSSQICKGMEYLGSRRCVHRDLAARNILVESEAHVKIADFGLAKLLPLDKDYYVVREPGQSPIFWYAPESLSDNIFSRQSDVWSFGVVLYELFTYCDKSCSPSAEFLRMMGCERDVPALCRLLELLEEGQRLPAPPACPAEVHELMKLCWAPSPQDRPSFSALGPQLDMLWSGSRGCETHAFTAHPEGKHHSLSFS

[6] = Pharmacokinetics in male Sprague Dawley rats; type: in vivo; settings: rat, plasma
Method: The bio-availability and pharmacokinetics of some compounds of the present invention were examined in male Sprague Dawley rats. A total of 6 male rats were used in the study. The study was performed using parallel design (n=3) with serial sampling.
Dose formulations were prepared on the day of doing. Blood samples were collected at 0.083 (only IV), 0.25, 0.5, 1, 2, 4, 8 and 24 h post-dose. At each time point, approximately 0.2 mL of blood was withdrawn from each cannulated rat through jugular vein and transferred to a pre-labeled microfuge tube containing 20 μL of 200 mm K2EDTA permL of blood. Following collection of blood sample, equal volume of heparinized saline was flushed into jugular vein of rat. The blood samples were centrifuged at 5000 g for 5 min at 4±2° C. The plasma was separated within 30 min of scheduled time and stored below −60° C. until bio-analysis. […] The pharmacokinetic parameters for select EXAMPLES were calculated using the non-compartmental analysis tool of validated WinNonlin® software (Version 5.2).

[7] = target: ITK (Homo sapiens (Human), UniProt Q08881); test: ITK kinase assay (radiometric filter binding, 10 μM ATP); type: biochemical
Sequence of ITK (Q08881 whole entry): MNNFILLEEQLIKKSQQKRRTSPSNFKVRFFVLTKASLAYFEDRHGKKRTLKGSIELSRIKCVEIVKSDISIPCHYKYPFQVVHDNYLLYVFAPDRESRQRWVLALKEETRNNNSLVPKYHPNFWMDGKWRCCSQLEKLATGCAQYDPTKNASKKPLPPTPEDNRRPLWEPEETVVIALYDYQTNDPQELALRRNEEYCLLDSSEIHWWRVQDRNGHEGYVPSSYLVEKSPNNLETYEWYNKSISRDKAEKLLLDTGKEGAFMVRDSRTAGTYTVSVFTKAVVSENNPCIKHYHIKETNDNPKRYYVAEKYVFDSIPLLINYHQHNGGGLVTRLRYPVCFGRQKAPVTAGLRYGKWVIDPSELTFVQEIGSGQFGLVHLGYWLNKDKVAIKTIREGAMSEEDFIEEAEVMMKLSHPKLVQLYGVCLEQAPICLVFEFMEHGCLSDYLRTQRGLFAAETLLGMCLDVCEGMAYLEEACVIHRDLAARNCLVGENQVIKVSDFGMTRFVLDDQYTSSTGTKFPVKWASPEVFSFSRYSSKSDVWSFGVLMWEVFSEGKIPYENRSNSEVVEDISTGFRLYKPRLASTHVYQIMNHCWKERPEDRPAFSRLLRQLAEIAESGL

[8] = test system: Established Type II Collagen Arthritis; test: 11 day mouse established type II collagen arthritis, PO, BID; type: in vivo, DBA/1OlaHsd Mouse
Description: Effects of 1H-pyrrolo[2,3-b]pyridine Series of Compounds Administered PO, BID in 11 Day DBA/1OlaHsd Mouse Established Type II Collagen Arthritis

[9] = test system: Anti-CD3e antibody induced CD4+ T cell cytokine-IL-2, IL-4 and IFN-γ production; test: Anti-CD3e antibody induced CD4+ T cell cytokine production in male BALB/c mice; type: in vivo; settings: compared to Positive control; 1.5 hrs post-antibody treatment
Method: 1H-pyrrolo[2,3-b]pyridine series of compounds Mice IL-2, IL-4 and IFN-g: 60 mg/Kg is highly efficacious. There is a significant increase in serum IL-2, IL-4 and IFN-gamma (P<0.001) of Positive Control animals compared to negative control animals.

[10] = test system: T cell receptor; test: SelectScreen cell-based pathway profiling, T cell receptor, NFAT-bla Jurkat, anti-CD3:CD28 stimulated; settings: NFAT-bla Jurkat cells, anti-CD3:CD28 stim
[11] = test system: IL-2 release from CD4+ T cells; test: IL-2 release from CD4+ T cells using HTRF; type: cell-based; settings: read-out: inhibition of IL-2 release from CD4+ T cells
[12] = IV 5 mg/kg, solution, male Sprague Dawley rats, mean±SD, n=3
[13] = PO 20 mg/kg, solution, male Sprague Dawley rats, mean±SD, n=3
[14] = 10-dose IC50 mode, 10 μM ATP, read-out: JAK3 kinase inhibition
[15] = 10-dose IC50 mode, 10 μM ATP, read-out: ITK kinase inhibition

Compound JAK Inhibitor I has an IC50 [1] of 83.5 nM, an IC50 [2] of 22 nM and an IC50 [3] of 6.92 nM. The IC50 [4] was 14.5 nM.
Compound `C=CC(=O)Nc1cccc(-c2cnc3[nH]cc(Cl)c3c2)c1` [Example 7, N-(3-(3-chloro-1H-pyrrolo[2,3-b]pyridin-5-yl)phenyl)acrylamide] has an IC50 ([5]; read-out: biochemical IC50 against JAK3) of 100 to 1000 nM, a bioavailability ([6]; male, Sprague Dawley, PO 20 mg/kg vs IV 5 mg/kg, AUCinf and nominal doses used, read-out: F (bioavailability)) of 15% and an AUC(0-inf) [6, 12] of 2620 ± 647 ng·h/mL. It also gave an AUC(0-t) [6, 12] of 2600 ng·h/mL, a clearance [6, 12] of 33.4 ± 9.57 mL/min/kg and a half-life [6, 12] of 32.4 ± 3 min. It also gave a Cmax ([6]; IV 5 mg/kg, solution, male Sprague Dawley rats, mean±SD, n=3, read-out: Cmax (back extrapolated concentration at time zero)) of 3850 ng/mL, a Vd ([6]; IV 5 mg/kg, solution, male Sprague Dawley rats, mean±SD, n=3, read-out: Vss) of 1.61 ± 0.28 L/kg and an AUC(0-inf) [6, 13] of 1600 ± 183 ng·h/mL. It also gave an AUC(0-t) [6, 13] of 1580 ng·h/mL, a Cmax ([6]; PO 20 mg/kg, solution, male Sprague Dawley rats, mean±SD, n=3, read-out: Cmax) of 853 ng/mL and a Tmax ([6]; PO 20 mg/kg, solution, male Sprague Dawley rats, median (range), n=3) of 15 min. For the same compound, the IC50 ([7]; read-out: biochemical IC50 against ITK) was 100 to 1000 nM.
In the case of `C[C@@H]1CCN(C(=O)CC#N)C[C@@H]1N(C)c1ncnc2[nH]ccc12` [Tofacitinib], the “effectiveness, suppression of the inflammatory response” value ([8]; collagen-induced arthritis in mice) is reported as 97%, the body weight ([8]; series 100 mg/kg group, Tofacitinib 60 mg/Kg) is reported as “body weight change from day 1” and the fever ([8]; treated mice, in vivo studies) is reported as “had fever”. For the same compound, the “serum IFN-gamma” value [9] was “significant decrease”, the “serum IL-2” value [9] was “significant decrease” and the “serum IL-4” value [9] was “significant decrease”.
For `Cn1cc(C2=C(c3cn(CCCSC(=N)N)c4ccccc34)C(=O)NC2=O)c2ccccc21` [Ro-31-8220], the IC50 [10] was 615 nM.
In the case of `C[C@@H]1C[C@H]2[C@@H]3CCC4=CC(=O)C=C[C@]4(C)[C@@]3(F)[C@@H](O)C[C@]2(C)[C@@]1(O)C(=O)CO` [Dexamethasone], the “serum IFN-gamma” value [9] is reported as “significant decrease”, the “serum IL-2” value [9] is reported as “significant decrease” and the “serum IL-4” value [9] is reported as “significant decrease”.
In the case of `COc1cc(C)c(Sc2cnc(NC(=O)c3ccc(CNC(C)C(C)(C)C)cc3)s2)cc1C(=O)N1CCN(C(C)=O)CC1` (stereo not shown) [BMS509744], the IC50 [11] is reported as 350 nM.
With `C#CC(=O)Nc1cc(-c2cnc3[nH]ccc3c2)ccc1F` [Example 83, N-(2-fluoro-5-(1H-pyrrolo[2,3-b]pyridin-5-yl)phenyl)propiolamide] the IC50 [5, 14] was < 100 nM and the IC50 [7, 15] was > 1000 nM.
With `Cc1c[nH]c2ncc(-c3cccc(NC(=O)C4CCCN4)c3)cc12` (stereo not shown) [Example 71, N-(3-(3-methyl-1H-pyrrolo[2,3-b]pyridin-5-yl)phenyl)pyrrolidine-2-carboxamide] the IC50 [5, 14] was > 100 nM and the IC50 [7, 15] was > 100 nM.
For `Cc1n[nH]c2ncc(-c3ccc(Cl)c(NC(=O)/C=C/N(C)C)c3)cc12` [Example 49, (E)-N-(2-chloro-5-(3-methyl-1H-pyrazolo[3,4-b]pyridin-5-yl)phenyl)-3-(dimethylamino)acrylamide], the IC50 [5, 14] was > 100 nM and the IC50 [7, 15] was > 100 nM.
